According to patent US20240308996A1, “PYRIDOPYRIDINES AND DERIVATIVES THEREOF AS SELECTIVE KINASE INHIBITORS” (University of Sharjah, priority 2023, published 2024):

Key:
Format in all cases: cell-based
KM12 = experiment: NCI-60 cell line panel: KM12; details: Colon Cancer
Description: (§1) It was carried out at the NCI, Bethesda, MD, USA, utilizing their standard protocol.

HepG2 = experiment: MTT assay, HepG2 HCC cell line; details: Homo sapiens, 48 h, mean of triplicate assays ± SEM
Description: (§2) Two HCC cell lines (Hep3B and HepG2) were used for screening the antiproliferative activity of the synthesized compounds. The cell lines were obtained from the European Collection of Cell Cultures (ECACC, UK) and maintained in Dulbecco's Modified Eagle Medium (DMEM: Sigma-Aldrich) supplemented with 10% fetal bovine serum (FBS) and 1% penicillin/streptomycin and incubated at 37° C. in a 5% CO2 air atmosphere. In addition, WI-38 normal cell line was used to investigate the safety of these compounds.
(§3) MTT assay was conducted to calculate the IC50 of the compounds following the reported procedure . Briefly, the cells were seeded in 96-well tissue culture plates with a density of 5×10^4 cells/well and incubated overnight at 37° C. in a 5% CO2 air atmosphere. […] DMSO was used as a negative control. After 48 h, the media were aspirated, and replaced with media containing 0.5 mg/mL of MTT tetrazolium dye (Sigma-Aldrich) for 2 h at 37° C. Finally, the media were removed and 200 μL of DMSO was added to solubilize the formazan crystals. Absorbance was then measured at 570 nm using Varioskan Flash multimode plate reader (Thermo Scientific, Massachusetts, USA).

A549/ATCC = experiment: NCI-60 cell line panel: A549/ATCC; details: Non-Small Cell Lung Cancer
Description: as §1

Hep3B = experiment: MTT assay, Hep3B HCC cell line; details: Homo sapiens, 48 h, mean of triplicate assays ± SEM
Description: as §2, §3

HCT-116 = experiment: NCI-60 cell line panel: HCT-116; details: Colon Cancer
Description: as §1

COLO 205 = experiment: NCI-60 cell line panel: COLO 205; design: TGI: unit not given here; details: Colon Cancer
Description: as §1

NCI-H322M = experiment: NCI-60 cell line panel: NCI-H322M; details: Non-Small Cell Lung Cancer
Description: as §1

RXF 393 = experiment: NCI-60 cell line panel: RXF 393; details: Renal Cancer
Description: as §1

A498 = experiment: NCI-60 cell line panel: A498; details: Renal Cancer
Description: as §1

786-0 = experiment: NCI-60 cell line panel: 786-0; details: Renal Cancer
Description: as §1

K-562 = experiment: NCI-60 cell line panel: K-562; design: TGI: unit not given here
Description: as §1

SW-620 = experiment: NCI-60 cell line panel: SW-620; details: Colon Cancer
Description: as §1

NCI-H23 = experiment: NCI-60 cell line panel: NCI-H23; details: Non-Small Cell Lung Cancer
Description: as §1

UACC-257 = experiment: NCI-60 cell line panel: UACC-257; details: Melanoma
Description: as §1

LOX IMVI = experiment: NCI-60 cell line panel: LOX IMVI; details: Melanoma
Description: as §1

OVCAR-4 = experiment: NCI-60 cell line panel: OVCAR-4; details: Ovarian Cancer
Description: as §1

IGROV1 = experiment: NCI-60 cell line panel: IGROV1
Description: as §1

MOLT-4 = experiment: NCI-60 cell line panel: MOLT-4; design: TGI: unit not given here; details: Leukemia
Description: as §1

SK-MEL-28 = experiment: NCI-60 cell line panel: SK-MEL-28; details: Melanoma
Description: as §1

MDA-MB-435 = experiment: NCI-60 cell line panel: MDA-MB-435; design: TGI: unit not given here; details: Melanoma
Description: as §1

SN12C = experiment: NCI-60 cell line panel: SN12C; details: Renal Cancer
Description: as §1

T-47D = experiment: NCI-60 cell line panel: T-47D; details: Breast Cancer
Description: as §1

NCI-H522 = experiment: NCI-60 cell line panel: NCI-H522; design: TGI: unit not given here; details: Non-Small Cell Lung Cancer
Description: as §1

MDA-MB-468 = experiment: NCI-60 cell line panel: MDA-MB-468; details: Breast Cancer
Description: as §1

MALME-3M = experiment: NCI-60 cell line panel: MALME-3M; details: Melanoma
Description: as §1

HL-60(TB) = experiment: NCI-60 cell line panel: HL-60(TB); design: TGI: unit not given here; details: Leukemia
Description: as §1

HOP-92 = experiment: NCI-60 cell line panel: HOP-92; design: TGI: unit not given here; details: Non-Small Cell Lung Cancer
Description: as §1

SNB-75 = experiment: NCI-60 cell line panel: SNB-75; design: TGI: unit not given here; details: CNS Cancer
Description: as §1

SNB-19 = experiment: NCI-60 cell line panel: SNB-19; details: CNS Cancer
Description: as §1

SR = experiment: NCI-60 cell line panel: SR; details: Leukemia
Description: as §1

NCI/ADR-RES = experiment: NCI-60 cell line panel: NCI/ADR-RES; design: TGI: unit not given here; details: Ovarian Cancer
Description: as §1

[1] = total growth inhibition, in µM (unit assumed)

## CCN1CCN(c2ccc(NC(=O)Nc3ccc(-c4cc(C(=O)NC(C)C)c5ncccc5n4)cc3)cc2C(F)(F)F)CC1 [Compound 13f, 2-(4-(3-(4-(4-Ethylpiperazin-1-yl)-3-(trifluoromethyl)phenyl)ureido)phenyl)-N-isopropyl-1,5-naphthyridine-4-carboxamide]
KM12; total growth inhibition
  TGI: 2.91 µM
KM12; Homo sapiens
  IC50: 1.01 µM
HepG2
  IC50: 0.46 ± 0.06 µM
A549/ATCC; Homo sapiens
  IC50: 1.14 µM
A549/ATCC; total growth inhibition
  TGI: 5.77 µM
Hep3B
  IC50: 1.09 ± 0.14 µM
HCT-116; total growth inhibition
  TGI: 1.3 µM
HCT-116; Homo sapiens
  IC50: 0.64 µM
COLO 205; total growth inhibition
  TGI: 2.71
COLO 205; Homo sapiens
  IC50: 0.93 µM
NCI-H322M; Homo sapiens
  IC50: 1.85 µM
NCI-H322M; total growth inhibition
  TGI: 7.24 µM
RXF 393; Homo sapiens
  IC50: 0.65 µM
RXF 393; total growth inhibition
  TGI: 1.73 µM
A498; Homo sapiens
  IC50: 5.11 µM
A498; total growth inhibition
  TGI: 9.7 µM
786-0; Homo sapiens
  IC50: 0.5 µM
786-0; total growth inhibition
  TGI: 1.03 µM
K-562; Homo sapiens, K562, Leukemia
  IC50: 1 µM
K-562; Leukemia, total growth inhibition
  TGI: >34.5
SW-620; total growth inhibition
  TGI: 1.26 µM
SW-620; Homo sapiens
  IC50: 0.64 µM
NCI-H23; Homo sapiens
  IC50: 2.05 µM
NCI-H23; total growth inhibition
  TGI: 7.27 µM
UACC-257; Homo sapiens
  IC50: 3.45 µM
UACC-257; total growth inhibition
  TGI: 8.11 µM
LOX IMVI; Homo sapiens
  IC50: 0.56 µM
LOX IMVI; total growth inhibition
  TGI: 1.05 µM
OVCAR-4; Homo sapiens
  IC50: 0.88 µM
OVCAR-4; [1]
  TGI: 2.45
IGROV1; Homo sapiens, IGROV-1, Ovarian Cancer
  IC50: 1.42 µM
IGROV1; Ovarian Cancer, total growth inhibition
  TGI: 5.11 µM
MOLT-4; Homo sapiens
  IC50: 1.11 µM
MOLT-4; total growth inhibition
  TGI: 30.60
SK-MEL-28; Homo sapiens
  IC50: 0.75 µM
SK-MEL-28; total growth inhibition
  TGI: 1.85 µM
MDA-MB-435; Homo sapiens
  IC50: 0.65 µM
MDA-MB-435; total growth inhibition
  TGI: 1.31
SN12C; Homo sapiens
  IC50: 0.67 µM
SN12C; total growth inhibition
  TGI: 1.38 µM
T-47D; total growth inhibition
  TGI: 8.74 µM
T-47D; Homo sapiens, T47D
  IC50: 1.93 µM
NCI-H522; Homo sapiens
  IC50: 3.52 µM
NCI-H522; total growth inhibition
  TGI: 8.43
MDA-MB-468; total growth inhibition
  TGI: 1.85 µM
MDA-MB-468; Homo sapiens
  IC50: 0.77 µM
MALME-3M; Homo sapiens
  IC50: 0.58 µM
MALME-3M; [1]
  TGI: 1.05
HL-60(TB); Homo sapiens
  IC50: 1.07 µM
HL-60(TB); total growth inhibition
  TGI: 5.89
HOP-92; Homo sapiens
  IC50: 3.14 µM
HOP-92; total growth inhibition
  TGI: 8.29
SNB-75; total growth inhibition
  TGI: 5.14
SNB-75; Homo sapiens
  IC50: 0.98 µM
SNB-19; total growth inhibition
  TGI: 9.12 µM
SNB-19; Homo sapiens
  IC50: 4.24 µM
SR; Homo sapiens
  IC50: 1.05 µM
SR; total growth inhibition
  TGI: 12.1 µM
NCI/ADR-RES; Homo sapiens
  IC50: 3.66 µM
NCI/ADR-RES; total growth inhibition
  TGI: 10.00
